Assay results from publication PMC7034394 (Journal of medicinal chemistry, 2019).
Entries after “also recorded” stand apart in the source; their conditions may differ. Blank lines part the entries; values can stand above or below the molecule they belong to.

Assays:
slc26a3 (DRA) = biological target: T1, slc26a3 (DRA) (Mus musculus, UniProt Q9WVC8); type: cell-based, murine; details: for slc26a3 inhibition at 5 μM: 5 μM compound
T1 sequence (Q9WVC8 1-757): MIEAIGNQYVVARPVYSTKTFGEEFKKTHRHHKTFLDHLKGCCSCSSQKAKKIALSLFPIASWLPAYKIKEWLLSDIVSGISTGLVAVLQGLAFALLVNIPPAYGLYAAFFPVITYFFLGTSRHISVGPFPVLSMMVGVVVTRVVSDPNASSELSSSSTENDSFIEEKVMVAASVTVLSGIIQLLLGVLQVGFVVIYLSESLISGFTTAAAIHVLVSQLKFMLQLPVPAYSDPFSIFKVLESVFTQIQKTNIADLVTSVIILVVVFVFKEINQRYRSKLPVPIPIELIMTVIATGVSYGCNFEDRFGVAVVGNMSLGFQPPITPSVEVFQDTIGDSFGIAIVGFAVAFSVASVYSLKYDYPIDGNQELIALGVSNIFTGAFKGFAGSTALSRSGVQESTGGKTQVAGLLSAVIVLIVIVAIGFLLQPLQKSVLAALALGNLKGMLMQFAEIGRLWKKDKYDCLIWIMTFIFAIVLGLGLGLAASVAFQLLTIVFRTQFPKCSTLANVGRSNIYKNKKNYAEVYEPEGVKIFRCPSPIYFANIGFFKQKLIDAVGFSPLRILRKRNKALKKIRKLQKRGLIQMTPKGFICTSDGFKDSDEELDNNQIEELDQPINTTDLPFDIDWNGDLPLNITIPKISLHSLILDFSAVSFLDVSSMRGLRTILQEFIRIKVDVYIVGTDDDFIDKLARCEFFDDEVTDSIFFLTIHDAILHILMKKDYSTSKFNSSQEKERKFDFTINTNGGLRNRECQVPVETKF

[1] = Pharmacokinetics in mice, serum concentration by LC/MS; type: in vivo; details: for bioavailability: mouse, serum, po
loperamide-treated mice [2] = details: cited from earlier work
slc26a4 (pendrin) = biological target: T2, slc26a4 (pendrin) (Mus musculus, UniProt Q9R155); type: cell-based, murine; details: 10 μM compound, 10 min preincubation
T2 sequence (Q9R155 1-780): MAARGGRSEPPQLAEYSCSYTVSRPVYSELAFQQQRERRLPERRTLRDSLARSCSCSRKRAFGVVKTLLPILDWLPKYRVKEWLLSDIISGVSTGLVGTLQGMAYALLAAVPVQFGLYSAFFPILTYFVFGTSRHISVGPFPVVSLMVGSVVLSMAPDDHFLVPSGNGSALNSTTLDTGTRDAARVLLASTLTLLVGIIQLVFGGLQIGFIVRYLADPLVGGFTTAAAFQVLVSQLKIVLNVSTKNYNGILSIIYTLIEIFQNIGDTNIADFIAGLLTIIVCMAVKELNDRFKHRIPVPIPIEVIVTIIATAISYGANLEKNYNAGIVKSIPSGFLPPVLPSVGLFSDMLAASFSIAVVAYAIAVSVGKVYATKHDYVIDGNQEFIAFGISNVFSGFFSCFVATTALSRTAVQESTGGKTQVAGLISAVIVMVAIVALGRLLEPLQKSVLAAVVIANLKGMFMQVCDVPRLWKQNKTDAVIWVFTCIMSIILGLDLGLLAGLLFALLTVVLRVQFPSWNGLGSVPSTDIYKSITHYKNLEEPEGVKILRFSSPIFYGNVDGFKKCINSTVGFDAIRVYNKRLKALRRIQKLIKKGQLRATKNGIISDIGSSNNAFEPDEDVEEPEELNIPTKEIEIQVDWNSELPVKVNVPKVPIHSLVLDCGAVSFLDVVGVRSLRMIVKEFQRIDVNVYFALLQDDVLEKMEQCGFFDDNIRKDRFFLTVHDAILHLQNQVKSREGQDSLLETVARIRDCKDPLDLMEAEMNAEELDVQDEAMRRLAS

slc26a6 (PAT-1) = biological target: T3, slc26a6 (PAT-1) (Mus musculus, UniProt Q8CIW6); type: cell-based, murine; details: 10 μM compound, 10 min preincubation
T3 sequence (Q8CIW6 1-758): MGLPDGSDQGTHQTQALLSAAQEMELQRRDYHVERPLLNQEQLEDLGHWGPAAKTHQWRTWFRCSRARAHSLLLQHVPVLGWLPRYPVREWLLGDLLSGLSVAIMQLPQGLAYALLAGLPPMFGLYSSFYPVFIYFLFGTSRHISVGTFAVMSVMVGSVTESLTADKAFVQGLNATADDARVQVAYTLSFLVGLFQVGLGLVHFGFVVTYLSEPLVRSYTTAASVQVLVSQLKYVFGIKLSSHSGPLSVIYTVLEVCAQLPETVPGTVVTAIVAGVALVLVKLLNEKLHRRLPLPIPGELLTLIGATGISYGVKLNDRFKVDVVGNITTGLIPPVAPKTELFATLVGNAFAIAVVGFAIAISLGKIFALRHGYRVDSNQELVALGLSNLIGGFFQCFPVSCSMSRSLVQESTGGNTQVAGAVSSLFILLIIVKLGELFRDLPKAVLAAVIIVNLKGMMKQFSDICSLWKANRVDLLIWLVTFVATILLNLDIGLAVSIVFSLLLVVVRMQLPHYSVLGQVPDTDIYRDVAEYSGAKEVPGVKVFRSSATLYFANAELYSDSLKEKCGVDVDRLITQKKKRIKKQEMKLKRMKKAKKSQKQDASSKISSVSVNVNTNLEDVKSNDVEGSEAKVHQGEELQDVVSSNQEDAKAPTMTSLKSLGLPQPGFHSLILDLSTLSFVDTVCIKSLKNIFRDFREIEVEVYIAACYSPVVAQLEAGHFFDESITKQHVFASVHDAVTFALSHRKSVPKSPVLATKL

SLC26A9 = biological target: T4, SLC26A9 (Homo sapiens, UniProt Q7LBE3); type: cell-based; details: 10 μM compound, 10 min preincubation
T4 sequence (Q7LBE3 1-791): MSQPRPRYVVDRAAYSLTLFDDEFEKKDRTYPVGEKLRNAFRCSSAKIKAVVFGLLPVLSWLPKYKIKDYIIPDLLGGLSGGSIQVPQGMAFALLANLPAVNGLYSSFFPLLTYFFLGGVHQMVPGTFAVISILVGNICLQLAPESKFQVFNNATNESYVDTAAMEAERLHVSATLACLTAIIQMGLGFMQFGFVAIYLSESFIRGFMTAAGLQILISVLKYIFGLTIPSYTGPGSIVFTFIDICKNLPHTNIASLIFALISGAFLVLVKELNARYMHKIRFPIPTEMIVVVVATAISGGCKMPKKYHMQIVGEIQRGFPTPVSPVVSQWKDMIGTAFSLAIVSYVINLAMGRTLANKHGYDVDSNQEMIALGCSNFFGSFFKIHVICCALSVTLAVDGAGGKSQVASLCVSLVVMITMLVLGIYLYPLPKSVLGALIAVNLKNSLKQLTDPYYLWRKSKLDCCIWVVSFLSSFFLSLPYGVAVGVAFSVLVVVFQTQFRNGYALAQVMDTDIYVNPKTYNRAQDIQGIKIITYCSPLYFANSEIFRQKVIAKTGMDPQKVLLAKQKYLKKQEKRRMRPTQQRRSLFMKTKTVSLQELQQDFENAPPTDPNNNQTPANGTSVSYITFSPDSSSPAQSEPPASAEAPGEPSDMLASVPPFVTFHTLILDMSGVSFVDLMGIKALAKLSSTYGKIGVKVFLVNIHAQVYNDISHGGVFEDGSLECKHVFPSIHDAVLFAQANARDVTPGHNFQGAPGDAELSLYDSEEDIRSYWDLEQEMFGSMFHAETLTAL

loperamide-treated mice [3] = assay: Loperamide-induced constipation model in mice; type: in vivo; details: for Stool water content: 3 h stool

slc26a3 inhibition at 5 μM (slc26a3 (DRA)): inactive
SMILES: Cc1c(CC(=O)O)c(=O)oc2c(C)c(OCCn3cccc3)ccc12 [4ap]

slc26a3 inhibition activity, in words (slc26a3 (DRA)): inactive
SMILES: Cc1c(OCc2cccc(Br)c2)ccc2cc(C(=O)O)c(=O)oc12 [8aa]

slc26a3 inhibition at 5 μM (slc26a3 (DRA)): no inhibition
SMILES: Cc1c(CC(=O)O)c(=O)oc2c(C)c(OCCc3cccc(C(F)(F)F)c3)ccc12 [4as]

slc26a3 inhibition at 5 μM (slc26a3 (DRA)): no inhibition
SMILES: Cc1c(CC(=O)O)c(=O)oc2c(C)c(OS(=O)(=O)c3cccc(Cl)c3)ccc12 [4ar]

slc26a3 inhibition activity, in words (slc26a3 (DRA)): much reduced inhibition
SMILES: Cc1c(CC(N)=O)c(=O)oc2c(C)c(OCc3cccc(Br)c3)ccc12 [8ae]

bioavailability ([1]; 5 mg/kg): 54 ± 6.5%
SMILES: Cc1c(CC(=O)O)c(=O)oc2c(C)c(OCc3cccc(Br)c3)ccc12 [4ba, 2-(7-((3-Bromobenzyl)oxy)-4,8-dimethyl-2-oxo-2H-chromen-3-yl)acetic Acid]
Efficacy in a mouse model of constipation (loperamide-treated mice [2]): showed efficacy

slc26a3 inhibition at 5 μM (slc26a3 (DRA)): no inhibition
SMILES: Cc1cccc(S(=O)(=O)Oc2ccc3c(C)c(CC(=O)O)c(=O)oc3c2C)c1 [4aq]

slc26a3 inhibition at 5 μM (slc26a3 (DRA)): no inhibition
SMILES: CCCOc1ccc2c(C)c(CC(=O)O)c(=O)oc2c1C [4ad]

slc26a3 inhibition at 5 μM (slc26a3 (DRA)): no inhibition
SMILES: C=CCOc1ccc2c(C)c(CC(=O)O)c(=O)oc2c1C [4aa]

Extent of inhibition of slc26a3-mediated anion exchange (slc26a3 (DRA)): fully inhibited
Inhibition of chloride/iodide exchange, slc26a4 (pendrin) (slc26a4 (pendrin)): not significantly inhibited
Inhibition of chloride/iodide exchange, slc26a6 (PAT-1) (slc26a6 (PAT-1)): not significantly inhibited
Inhibition of chloride/iodide exchange, SLC26A9 (SLC26A9): not significantly inhibited
Duration of predicted therapeutic concentrations in serum ([1]; mice, single 10 mg/kg dose, oral (b1), oral or intraperitoneal): > 72 h
bioavailability ([1]; 10 mg/kg): 39 ± 4%
SMILES: Cc1c(CC(=O)O)c(=O)oc2c(C)c(OCc3cccc(I)c3)ccc12 [4az]
Effect on stool parameters compared to vehicle (loperamide-treated mice [3]; control mice not treated with loperamide): no significant effect
Stool water content (loperamide-treated mice [3]; loperamide-treated mice, 3 mg/kg oral): fully normalized
Stool water content (loperamide-treated mice [3]; loperamide-treated mice, 10 mg/kg oral): fully normalized

Extent of inhibition of slc26a3-mediated anion exchange (slc26a3 (DRA)): fully inhibited
Inhibition of chloride/iodide exchange, slc26a4 (pendrin) (slc26a4 (pendrin)): not significantly inhibited
Inhibition of chloride/iodide exchange, slc26a6 (PAT-1) (slc26a6 (PAT-1)): not significantly inhibited
Inhibition of chloride/iodide exchange, SLC26A9 (SLC26A9): not significantly inhibited
Serum level at 16 h ([1]; mice, single dose 5 mg/kg oral or intraperitoneal, 16 h): little compound remaining
bioavailability ([1]; 5 mg/kg): 16 ± 7%
SMILES: Cc1c(CC(=O)O)c(=O)oc2c(C)c(OCc3cccc(C(F)(F)F)c3)ccc12 [4be]
3 h stool weight, pellet number, and water content (loperamide-treated mice [3]; loperamide-treated mice, 5 mg/kg oral 1 h before loperamide, 5 mg/kg): partially prevented constipation; also recorded: improved

slc26a3 inhibition activity, in words (slc26a3 (DRA)): inactive
SMILES: COc1ccc2ccc(=O)oc2c1 [S3]
